Test [1] concerns the target T1, Mitogen-activated protein kinase kinase kinase 3 (Homo sapiens, UniProt Q99759).
T1 sequence (Q99759 whole entry): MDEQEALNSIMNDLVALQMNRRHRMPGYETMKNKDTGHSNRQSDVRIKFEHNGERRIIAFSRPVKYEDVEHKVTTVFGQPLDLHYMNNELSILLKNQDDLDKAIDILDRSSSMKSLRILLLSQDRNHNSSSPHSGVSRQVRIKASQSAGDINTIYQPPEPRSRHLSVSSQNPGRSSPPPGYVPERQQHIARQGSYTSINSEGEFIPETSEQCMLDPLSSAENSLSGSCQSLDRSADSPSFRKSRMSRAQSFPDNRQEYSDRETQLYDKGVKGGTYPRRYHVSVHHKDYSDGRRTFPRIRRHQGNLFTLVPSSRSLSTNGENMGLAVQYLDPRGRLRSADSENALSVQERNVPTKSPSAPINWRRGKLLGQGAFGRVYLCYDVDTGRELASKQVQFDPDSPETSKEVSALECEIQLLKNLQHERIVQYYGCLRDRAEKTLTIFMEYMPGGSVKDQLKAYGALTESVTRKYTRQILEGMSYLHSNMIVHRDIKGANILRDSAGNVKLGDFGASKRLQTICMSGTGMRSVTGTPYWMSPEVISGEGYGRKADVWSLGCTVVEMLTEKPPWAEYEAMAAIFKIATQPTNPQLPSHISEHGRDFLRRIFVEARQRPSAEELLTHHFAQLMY

In test [2] the target is T2, Mitogen-activated protein kinase kinase kinase 5 (Homo sapiens, UniProt Q99683).
T2 sequence (Q99683 whole entry): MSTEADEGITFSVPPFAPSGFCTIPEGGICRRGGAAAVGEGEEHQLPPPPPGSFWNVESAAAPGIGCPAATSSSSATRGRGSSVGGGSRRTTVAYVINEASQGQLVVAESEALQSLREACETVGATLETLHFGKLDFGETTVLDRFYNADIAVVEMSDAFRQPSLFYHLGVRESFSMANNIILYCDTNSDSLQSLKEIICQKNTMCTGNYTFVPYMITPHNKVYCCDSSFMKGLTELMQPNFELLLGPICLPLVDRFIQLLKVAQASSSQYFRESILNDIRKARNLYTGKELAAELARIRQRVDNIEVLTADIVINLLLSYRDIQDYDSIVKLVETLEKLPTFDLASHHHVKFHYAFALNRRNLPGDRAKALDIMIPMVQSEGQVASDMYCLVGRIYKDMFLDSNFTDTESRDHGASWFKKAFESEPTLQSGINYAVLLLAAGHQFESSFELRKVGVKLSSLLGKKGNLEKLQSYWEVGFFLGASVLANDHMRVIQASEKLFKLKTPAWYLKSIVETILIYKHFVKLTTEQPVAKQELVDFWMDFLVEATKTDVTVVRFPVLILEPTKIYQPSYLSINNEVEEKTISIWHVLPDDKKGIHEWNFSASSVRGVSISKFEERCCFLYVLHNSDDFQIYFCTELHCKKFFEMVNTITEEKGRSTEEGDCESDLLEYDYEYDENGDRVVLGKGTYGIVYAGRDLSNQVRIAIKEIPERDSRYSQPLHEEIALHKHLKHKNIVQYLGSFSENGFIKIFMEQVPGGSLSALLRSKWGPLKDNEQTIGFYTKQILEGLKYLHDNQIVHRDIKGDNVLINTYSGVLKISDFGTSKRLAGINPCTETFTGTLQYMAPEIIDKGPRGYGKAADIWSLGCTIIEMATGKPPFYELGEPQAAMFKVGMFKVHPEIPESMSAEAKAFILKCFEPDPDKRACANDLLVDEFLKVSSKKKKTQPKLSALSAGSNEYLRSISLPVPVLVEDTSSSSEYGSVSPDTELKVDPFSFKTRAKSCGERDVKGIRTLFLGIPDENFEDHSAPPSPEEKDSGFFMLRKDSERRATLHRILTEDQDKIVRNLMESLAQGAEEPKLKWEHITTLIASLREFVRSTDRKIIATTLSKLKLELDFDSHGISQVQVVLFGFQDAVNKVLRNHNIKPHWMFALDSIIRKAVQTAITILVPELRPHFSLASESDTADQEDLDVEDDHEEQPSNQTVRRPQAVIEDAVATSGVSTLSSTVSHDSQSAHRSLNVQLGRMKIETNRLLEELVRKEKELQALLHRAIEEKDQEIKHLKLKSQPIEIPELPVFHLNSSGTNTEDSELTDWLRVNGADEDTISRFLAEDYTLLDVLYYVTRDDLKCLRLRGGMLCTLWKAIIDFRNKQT

Another test has as its target Ephrin type-A receptor 4 (Homo sapiens, UniProt P54764).
Test [3] has as its target Glycogen synthase kinase-3 alpha (Homo sapiens, UniProt P49840).
For test [4], the target named is Platelet-derived growth factor receptor beta (Homo sapiens, UniProt P09619).
Chain of Platelet-derived growth factor receptor beta (P09619 whole entry): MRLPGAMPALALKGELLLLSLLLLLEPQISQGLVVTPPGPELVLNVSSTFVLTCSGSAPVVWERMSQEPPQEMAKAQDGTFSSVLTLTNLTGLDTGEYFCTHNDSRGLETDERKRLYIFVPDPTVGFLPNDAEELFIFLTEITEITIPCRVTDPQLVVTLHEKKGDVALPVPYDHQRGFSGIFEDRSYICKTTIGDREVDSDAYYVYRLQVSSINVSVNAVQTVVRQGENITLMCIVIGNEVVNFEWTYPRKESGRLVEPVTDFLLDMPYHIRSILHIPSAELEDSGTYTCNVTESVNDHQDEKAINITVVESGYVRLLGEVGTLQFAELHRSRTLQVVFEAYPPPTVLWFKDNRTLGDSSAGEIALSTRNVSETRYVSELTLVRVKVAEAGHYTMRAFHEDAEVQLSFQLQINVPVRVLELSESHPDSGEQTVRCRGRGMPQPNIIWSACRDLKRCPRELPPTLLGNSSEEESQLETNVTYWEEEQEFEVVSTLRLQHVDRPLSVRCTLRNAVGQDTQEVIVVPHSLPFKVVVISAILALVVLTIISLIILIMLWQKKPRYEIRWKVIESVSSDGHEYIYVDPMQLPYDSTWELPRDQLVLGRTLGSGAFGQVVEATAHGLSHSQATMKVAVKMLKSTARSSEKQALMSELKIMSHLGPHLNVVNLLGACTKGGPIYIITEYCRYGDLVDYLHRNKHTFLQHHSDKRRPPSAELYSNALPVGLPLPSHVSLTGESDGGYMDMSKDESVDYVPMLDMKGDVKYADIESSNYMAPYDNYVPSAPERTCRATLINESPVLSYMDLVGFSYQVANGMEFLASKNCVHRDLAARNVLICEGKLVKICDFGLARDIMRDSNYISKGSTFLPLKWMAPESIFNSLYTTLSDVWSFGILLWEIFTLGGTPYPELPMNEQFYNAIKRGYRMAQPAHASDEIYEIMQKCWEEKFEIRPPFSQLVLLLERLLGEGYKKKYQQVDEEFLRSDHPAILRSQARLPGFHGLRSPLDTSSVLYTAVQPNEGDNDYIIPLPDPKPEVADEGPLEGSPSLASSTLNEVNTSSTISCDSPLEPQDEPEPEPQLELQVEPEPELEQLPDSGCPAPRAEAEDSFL
Test [5] concerns the target Cyclin-dependent kinase 2 (Homo sapiens, UniProt P24941).
Test [6] concerns the target T3, Serine/threonine-protein kinase 4 (Homo sapiens, UniProt Q13043).
T3 sequence (Q13043 whole entry): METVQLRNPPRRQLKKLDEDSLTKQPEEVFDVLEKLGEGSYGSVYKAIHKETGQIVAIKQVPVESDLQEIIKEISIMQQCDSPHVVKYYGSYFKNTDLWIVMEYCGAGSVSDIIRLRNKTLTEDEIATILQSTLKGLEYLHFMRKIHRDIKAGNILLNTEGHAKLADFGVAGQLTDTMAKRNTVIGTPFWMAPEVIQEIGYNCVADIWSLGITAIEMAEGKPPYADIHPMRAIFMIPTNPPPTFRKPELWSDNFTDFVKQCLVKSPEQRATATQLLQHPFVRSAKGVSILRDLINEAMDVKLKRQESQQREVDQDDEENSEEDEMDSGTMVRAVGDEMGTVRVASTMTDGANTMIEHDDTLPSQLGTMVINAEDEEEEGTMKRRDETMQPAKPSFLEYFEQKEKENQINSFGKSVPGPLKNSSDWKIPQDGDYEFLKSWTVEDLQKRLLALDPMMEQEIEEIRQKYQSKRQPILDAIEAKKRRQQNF

In test [7] the target is cAMP-dependent protein kinase catalytic subunit beta (Homo sapiens, UniProt P22694).

Each structure is given as a SMILES string. Calls of active or inactive are those of the source. Rule as the data show it, for most assays here: actives have a measured Kd and inactives only a lower limit.
Also: in the data inactive means no Kd found up to 30 µM.

Chain of Glycogen synthase kinase-3 alpha (P49840 whole entry): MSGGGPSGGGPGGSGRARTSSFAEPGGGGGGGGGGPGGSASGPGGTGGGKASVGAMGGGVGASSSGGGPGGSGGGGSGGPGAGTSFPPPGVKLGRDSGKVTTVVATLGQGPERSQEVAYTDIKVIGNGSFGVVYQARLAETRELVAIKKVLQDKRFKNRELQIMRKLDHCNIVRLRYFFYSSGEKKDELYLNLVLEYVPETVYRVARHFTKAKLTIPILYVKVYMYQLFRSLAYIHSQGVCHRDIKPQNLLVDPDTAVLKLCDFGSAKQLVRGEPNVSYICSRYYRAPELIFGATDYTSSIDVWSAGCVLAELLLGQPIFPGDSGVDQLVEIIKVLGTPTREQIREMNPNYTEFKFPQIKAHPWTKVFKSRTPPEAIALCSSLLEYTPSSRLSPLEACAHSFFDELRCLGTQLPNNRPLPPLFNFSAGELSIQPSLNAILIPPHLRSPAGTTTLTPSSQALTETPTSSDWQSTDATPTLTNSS
Chain of Ephrin type-A receptor 4 (P54764 whole entry): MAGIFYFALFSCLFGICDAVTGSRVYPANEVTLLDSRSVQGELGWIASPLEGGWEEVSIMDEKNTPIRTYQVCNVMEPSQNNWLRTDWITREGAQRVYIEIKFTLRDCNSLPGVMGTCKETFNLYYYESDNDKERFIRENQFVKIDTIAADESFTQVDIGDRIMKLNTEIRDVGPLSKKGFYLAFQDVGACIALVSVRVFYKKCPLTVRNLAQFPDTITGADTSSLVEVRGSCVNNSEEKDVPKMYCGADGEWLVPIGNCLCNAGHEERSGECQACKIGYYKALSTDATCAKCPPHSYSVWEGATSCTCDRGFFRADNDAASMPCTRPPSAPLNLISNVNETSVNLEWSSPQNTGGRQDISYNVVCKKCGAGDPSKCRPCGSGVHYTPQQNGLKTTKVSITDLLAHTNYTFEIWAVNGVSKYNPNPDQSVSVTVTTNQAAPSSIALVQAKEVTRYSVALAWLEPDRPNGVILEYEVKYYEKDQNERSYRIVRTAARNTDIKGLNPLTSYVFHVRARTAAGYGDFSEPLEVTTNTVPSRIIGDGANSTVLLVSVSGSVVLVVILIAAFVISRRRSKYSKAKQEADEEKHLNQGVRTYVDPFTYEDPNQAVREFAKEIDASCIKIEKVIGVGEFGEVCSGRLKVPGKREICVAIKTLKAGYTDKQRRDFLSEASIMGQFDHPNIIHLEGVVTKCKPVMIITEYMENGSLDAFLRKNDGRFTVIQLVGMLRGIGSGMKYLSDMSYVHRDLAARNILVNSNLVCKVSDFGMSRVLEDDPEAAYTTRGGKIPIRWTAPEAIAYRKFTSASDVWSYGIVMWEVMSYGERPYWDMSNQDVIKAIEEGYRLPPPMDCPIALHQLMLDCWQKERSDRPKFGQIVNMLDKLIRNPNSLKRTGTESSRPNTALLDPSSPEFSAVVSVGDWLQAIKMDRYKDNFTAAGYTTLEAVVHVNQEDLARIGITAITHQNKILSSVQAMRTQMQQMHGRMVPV

Consider `COc1cc2ncnc(Nc3ccc(F)c(Cl)c3)c2cc1NC(=O)/C=C/CN1CCCCC1` [DACOMITINIB ANHYDROUS], for which the Kd (in test [1]; in test [2]; on Ephrin type-A receptor 4; in test [3]; in test [4]; in test [5]) was > 30 µM (inactive) each time. Moreover, the Kd in test [6] and in test [7] was > 30 µM (inactive) in each case.
Regarding `COCCN1CCN(Cc2ccc(-c3n[nH]c4c3C(=O)c3c(NC(=O)NN5CCOCC5)cccc3-4)cc2)CC1` [RGB-286638], the Kd in test [1] was > 30 µM (inactive); in test [2], > 30 µM (inactive); at Ephrin type-A receptor 4 it was > 30 µM (inactive); in test [3] it was 0.007 µM (active); in test [4], 1.36 µM; in test [5] it was 0.072 µM (active). Further, the Kd in test [6] and in test [7] was > 30 µM (inactive) in each case.
As to `O=C(NOC[C@H](O)CO)c1ccc(F)c(F)c1Nc1ccc(I)cc1F` [MIRDAMETINIB], the Kd (in test [1]; in test [2]; at Ephrin type-A receptor 4; in test [3]; in test [4]; in test [5]) was > 30 µM (inactive) in each case. The Kd in test [6] and in test [7] was > 30 µM (inactive) in each case.
For `CNC(=O)c1cccc(-c2ccc3c(N4CCOC[C@@H]4C)nc(N4CCOC[C@@H]4C)nc3n2)c1` [VISTUSERTIB], the Kd (in test [1]; in test [2]; on Ephrin type-A receptor 4; in test [3]; in test [4]; in test [5]) was > 30 µM (inactive) each time. Further, the Kd in test [6] and in test [7] was > 30 µM (inactive) in each case.
Turning to `COc1cc2nccc(Oc3ccc(NC(=O)C4(C(=O)Nc5ccc(F)cc5)CC4)cc3)c2cc1OC` [CABOZANTINIB], the Kd (in test [1]; in test [2]; at Ephrin type-A receptor 4; in test [3]; in test [4]; in test [5]) was > 30 µM (inactive) each time. The Kd in test [6] and in test [7] was > 30 µM (inactive) in each case.
`Cc1cc(Nc2nc(N[C@@H](C)c3ncc(F)cn3)ncc2Cl)n[nH]1` [AZD-1480]: the Kd (in test [1]; in test [2]; on Ephrin type-A receptor 4; in test [3]; in test [4]; in test [5]) was > 30 µM (inactive) throughout. Further, the Kd in test [6] was 0.861 µM (active); in test [7] it was > 30 µM (inactive).
`O=C(Nc1ccc(OC(F)(F)F)cc1)c1sccc1NCc1ccnc2ccccc12` [OSI-930]: the Kd (in test [1]; in test [2]; at Ephrin type-A receptor 4; in test [3]; in test [4]; in test [5]) was > 30 µM (inactive) each time. For the same compound, the Kd in test [6] and in test [7] was > 30 µM (inactive) in each case.
For the compound `C=CCN(/C=C1/C(=O)O[C@H](COC)[C@@]2(C)C1=C(O)C(=O)C1=C2[C@H](OC(C)=O)C[C@]2(C)C(=O)CC[C@@H]12)CC=C` [SONOLISIB], the Kd (in test [1]; in test [2]; on Ephrin type-A receptor 4; in test [3]; in test [4]; in test [5]) was > 30 µM (inactive) in each case. Besides, the Kd in test [6] and in test [7] was > 30 µM (inactive) each time.
With `COc1cccc2cc(-c3nc([C@H]4CC[C@H](C(=O)O)CC4)n4ncnc(N)c34)[nH]c12` [OSI-027], the Kd (in test [1]; in test [2]; at Ephrin type-A receptor 4; in test [3]; in test [4]; in test [5]) was > 30 µM (inactive) in each case. The Kd in test [6] and in test [7] was > 30 µM (inactive) each time.
Turning to `O=c1[nH]c([C@@H]2CCCN2)nc2c1oc1ccc(Cl)cc12`, the Kd (in test [1]; in test [2]; on Ephrin type-A receptor 4; in test [3]; in test [4]; in test [5]) was > 30 µM (inactive) each time. Moreover, the Kd in test [6] and in test [7] was > 30 µM (inactive) throughout.
With `COc1ccc(-c2ccc3ncc4c(c3c2)n(-c2ccc(N3CCNCC3)c(C(F)(F)F)c2)c(=O)n4C)cn1` [BGT-226 FREE BASE], the Kd in test [1] was > 30 µM (inactive); in test [2], > 30 µM (inactive); at Ephrin type-A receptor 4, > 30 µM (inactive); in test [3], 3.4 µM (active); in test [4] it was > 30 µM (inactive); in test [5], > 30 µM (inactive). In addition, the Kd in test [6] and in test [7] was > 30 µM (inactive) throughout.
Regarding `CNC(=O)c1ccc(Nc2ncc(C(F)(F)F)c(NCc3nccnc3N(C)S(C)(=O)=O)n2)cc1` [DEFACTINIB], the Kd in test [1] was > 30 µM (inactive); in test [2], > 30 µM (inactive); on Ephrin type-A receptor 4, > 30 µM (inactive); in test [3], 1.46 µM (active); in test [4], > 30 µM (inactive); in test [5], 1.66 µM. The values for the Kd in test [6] and in test [7] were 2.45 µM (active) and > 30 µM (inactive), respectively.
On to `CCOc1ccn(-c2ccc(F)cc2)c(=O)c1C(=O)Nc1ccc(Oc2ccnc(N)c2Cl)c(F)c1` [BMS-777607], for which the Kd (in test [1]; in test [2]; on Ephrin type-A receptor 4; in test [3]; in test [4]; in test [5]) was > 30 µM (inactive) throughout. The Kd in test [7] was > 30 µM (inactive).

Source of the values: ChEMBL document CHEMBL3991601, “The target landscape of clinical kinase drugs” (Science, 2017).
